The test system of data set [1] is cells with abnormal MEs. Put plainly: Differentiation inducer (DI) activity, ED25/ED50/ED75. It is filed as cell-based.
Data set [2] has as its system cells with abnormal MEs. Description: Differentiation helper inducer (DHI) potency, RI0.5 (reductive index). It is filed as cell-based. An excerpt: DHI was our invention, which was the term we created. DHls are inhibitors of individual enzymes of MEs. Rl0.5 was the method we developed for the measurement of potency as DHI [67].
Data set [3] can be described thus: Water solubility. It is filed as physicochemical.
Data set [4] concerns the target T1, MAT (Homo sapiens, UniProt P31153).
T1 construct: endogenous in cells
Put plainly: Helping role of DHI to boost the activity of DI, in cell culture (Km, Vmax of enzyme from treated cells). It is filed as cell-based. From the text:
(§1) DHI was our invention, which was the term we created. DHls are inhibitors of individual enzymes of MEs. Rl0.5 was the method we developed for the measurement of potency as DHI [67]. Inhibitors of MT and SAHH are better than inhibitors of MAT to function as DHIs.

In data set [5] the test system is cells with abnormal MEs. Put plainly: Helping role of DHI to boost the activity of DI, in cell culture (% NBT+). It is filed as cell-based.
From the text: as §1

The target in data set [6] is T2, MEs (MAT-MT-SAHH) (Rattus norvegicus, UniProt P10760).
T2 construct: Cytosol extracts were prepared from prostates of each group; from tissue; host or cells: prostate cytosol of hypophysectomized rats
T2 sequence (P10760 1-432): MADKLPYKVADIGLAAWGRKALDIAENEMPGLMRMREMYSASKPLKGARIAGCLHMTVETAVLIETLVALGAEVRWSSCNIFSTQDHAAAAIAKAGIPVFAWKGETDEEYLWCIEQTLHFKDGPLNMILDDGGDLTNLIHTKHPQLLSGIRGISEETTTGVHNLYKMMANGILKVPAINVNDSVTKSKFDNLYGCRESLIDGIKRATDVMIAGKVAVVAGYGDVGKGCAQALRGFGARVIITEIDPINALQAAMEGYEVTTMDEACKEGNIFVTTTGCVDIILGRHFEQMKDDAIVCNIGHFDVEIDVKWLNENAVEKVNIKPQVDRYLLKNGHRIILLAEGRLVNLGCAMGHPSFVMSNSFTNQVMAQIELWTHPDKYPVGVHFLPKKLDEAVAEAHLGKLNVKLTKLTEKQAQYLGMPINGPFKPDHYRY
Description: Testosterone administration, sedimentation profiles of MEs from long-term hormone-depleted prostate (FIG. 1). It is filed as in vivo. As to conditions: hypophysectomized rats, daily sc 1 mg for 3 days; single peak, intact ternary MEs.
Description: Ten weeks after hypophysectomy, rats were divided into two groups. One group (b) received daily sc injection of I mg testosterone propionate dissolved in 0.25 ml of sesame oil for 3 days. The other group (a) was control without treatment. Cytosol extracts were prepared from prostates of each group with 5 volume of extraction buffer 0.05 M Tris HCl, pH 7.5, 50 mM KCl, 0.5 mM MgCl2. 0.1 ml of cytosol extracts were layered onto 5-20% linear sucrose density gradient for sedimentation analyses.

Data set [7] has as its system malignant brain tumors. As to conditions: in vivo; cited from earlier work.
Setting [8] is: potency as DHI, RI0.5 is equivalent to ED25 of DI.

Read-outs that look alike come from different tables or passages of the source.

T1 sequence (P31153 whole entry): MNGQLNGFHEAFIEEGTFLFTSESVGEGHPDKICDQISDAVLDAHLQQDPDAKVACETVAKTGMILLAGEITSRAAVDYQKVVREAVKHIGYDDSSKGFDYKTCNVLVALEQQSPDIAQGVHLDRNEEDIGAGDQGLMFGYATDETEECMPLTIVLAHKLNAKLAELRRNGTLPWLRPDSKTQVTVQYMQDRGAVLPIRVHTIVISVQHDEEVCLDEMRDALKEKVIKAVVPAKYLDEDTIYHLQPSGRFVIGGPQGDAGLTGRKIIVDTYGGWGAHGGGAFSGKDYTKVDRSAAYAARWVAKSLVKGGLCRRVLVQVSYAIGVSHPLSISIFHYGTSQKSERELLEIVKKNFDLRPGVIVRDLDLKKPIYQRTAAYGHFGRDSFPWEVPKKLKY

Turning to `CCCCC(C)(C)[C@H](O)/C=C/[C@H]1[C@H](O)CC(=O)[C@@H]1C/C=C\CCCC(=O)O` [16, 16-dimethylPGE2, 16,16-dimethylprosglandin E2], in data set [1], the ED25 is given as 10.8 µM and the ED75 was 30.1 µM.

`CCCCC/C=C\C/C=C\C/C=C\C/C=C\CCCC(=O)O` [AA, arachidonic acid]: the ED25 in data set [1] was found to be 24.0 µM.

`O=[As]O[As]=O` (stereo not shown) [AS2O3]: the RI0.5 in data set [2] (setting [8]) stood at 0.28 µM.

`CC1=C(/C=C/C(C)=C/C=C/C(C)=C/C(=O)O)C(C)(C)CCC1` [ATRA, all-trans retinoic acid]: in data set [1], the ED25 stood at 0.18 µM and the ED75 came out at 0.75 µM.

For `C/C(=C\C(=O)Nc1ccccc1C(=O)O)c1ccc2ccccc2c1` [BIBR1532], in data set [1], the ED25 turned out to be 32.3 µM and the ED75 stood at 55.1 µM.

In turn, `CCCCC1C(=O)CC[C@H]2[C@@H]1CC(=O)[C@@H]2C/C=C\CCCC(=O)O` (stereo partly shown) [BicycloPGE2, bicycloprostaglandin E2] yielded an ED25 in data set [1] of 21.0 µM.

Regarding `COc1cc2c(cc1O)C[C@H]1c3c(cc(O)c(OC)c3-2)CCN1C` [Boldine], in data set [1], the ED25 is on record as 60.1 µM and the ED75 was found to be 94.2 µM.

Regarding `[Cl-].[Cl-].[Co+2]` [CoCl2], in data set [2], the RI0.5 came out at 0.62 µM.

In the case of `COc1cc(/C=C/C(=O)CC(=O)/C=C/c2ccc(O)c(OC)c2)ccc1O` [Curcumin], in data set [3], the water solubility result is “not good”.

By Km is commonly meant the concentration of substrate that gives half-maximal velocity. `CN(C)C=O` [DMFA, dimethylformamide]: in data set [4] (in cell culture, DMFA, 0.3%), the Km came to 16.4 µM and the “Vmax (% of control)” value was 78 % of control. Further, the “% NBT+” value in data set [5] (DMFA, 0.3%) was 14%.

In the case of `O=C(O[C@@H]1Cc2c(O)cc(O)cc2O[C@@H]1c1cc(O)c(O)c(O)c1)c1cc(O)c(O)c(O)c1` [Epigallocatechin gallate], the RI0.5 in data set [2] (setting [8]) is 0.62 µM.

For `C/C=C1\C(=O)C[C@H]2[C@@H]3CCC4=CC(=O)CC[C@]4(C)[C@H]3CC[C@]12C` [Gugulsterone], the RI0.5 in data set [2] (setting [8]) turned out to be 1.59 µM.

Regarding `O=C(O)Cc1ccccc1` [PA, phenylacetate], in data set [4] (in cell culture, PA, 4 mM), the Km was 20.3 µM. Also, in data set [4] (read-out: Vmax (% of control)), the Vmax (% of control) at 4000 µM is 88%. For the same compound, the “% NBT+” value in data set [5] (PA, 4 mM) is 7%.

Take `CCCCC[C@H](O)/C=C/[C@H]1[C@H](O)CC(=O)[C@@H]1C/C=C\CCCC(=O)O` [PGE2, prostaglandin E2]: in data set [1], the ED25 is 20.6 µM and the ED75 is reported as 46.5 µM.

On to `CCCCC[C@H](O)/C=C/[C@H]1C(=O)C=C[C@@H]1C/C=C\CCCC(=O)O` [PGJ2, prostaglandin J2], for which, in data set [1], the ED25 is 7.9 µM and the ED75 was 20.5 µM.

For the compound `CC(=O)[C@H]1CC[C@H]2[C@@H]3CC=C4C[C@@H](O)CC[C@]4(C)[C@H]3CC[C@]12C` [Pregnenolone], the RI0.5 in data set [2] (setting [8]) is reported as 7.16 µM. Also, in data set [3], the water solubility entry is “not good”.

`CC1=C(/C=C/C(C)=C/C=C/C(C)=C/C(=O)O)C(C)(C)CCC1` [RA, retinoic acid]: in data set [4] (in cell culture, RA, 0.15 µM, read-out: Km), the Km was 17.5 µM. For the same compound, the remaining activity at 0.15 µM in data set [4] (in cell culture, RA, 0.15 µM, read-out: Vmax (% of control)) is 60%. Also, in data set [5] (RA, 0.15 µM), the “% NBT+” value amounted to 16%.

Regarding `O=[Se](O)O` [Selenite], the RI0.5 in data set [2] (setting [8]) is on record as 19.7 µM.

`C=CC1=C(C)C(=O)N=C1C=c1[nH]c(=Cc2[nH]c(O)c(C)c2CCC(=O)O)c(CCC(=O)O)c1C` [Uroerythrin]: the RI0.5 in data set [2] (setting [8]) worked out at 1.75 µM.

On to `C=C1CC[C@H](O)C/C1=C/C=C1\CCC[C@]2(C)[C@@H]([C@H](C)CCCC(C)C)CC[C@@H]12` [Vitamin D3], for which the RI0.5 in data set [2] (setting [8]) came to 0.61 µM.

Consider `Cc1ccc(Nc2nccc(N(C)c3ccc4c(C)n(C)nc4c3)n2)cc1S(N)(=O)=O.Cl` [Votrient], for which the RI0.5 in data set [2] (setting [8]) is listed as 10.1 µM.

With `CCC(=O)O[C@H]1CC[C@H]2[C@@H]3CCC4=CC(=O)CC[C@]4(C)[C@H]3CC[C@]12C` [testosterone propionate], the “sedimentation of MEs (MAT, MT, SAHH) of prostate cytosol” value in data set [6] turned out to be 8 S.

As for `CC[C@H](CC[C@@H](C)[C@H]1CC[C@H]2[C@@H]3CC=C4C[C@@H](O)CC[C@]4(C)[C@H]3CC[C@]12C)C(C)C` [ß-sitoisterol], the RI0.5 in data set [2] (setting [8]) is 1.72 µM.

For Phenylbutyric acid, the RI0.5 in data set [2] (setting [8]) was 970 µM. For the same compound, the “response of malignant brain tumors” value in data set [7] was “responded very well”.

In data set [1], Tetradecanoyl phorbol acetate [TPA] returned an ED25 of 0.00017 µM and an ED75 of 0.00036 µM.

The values are drawn from patent US20230064307A1, “Pharmaceutical composition to destabilize abnormal methylation enzymes and use thereof” (priority 2021, published 2023).
